US11261184B2, “[1,6]naphthyridine compounds and derivatives as CDK8/CDK19 inhibitors” (Boehringer Ingelheim International GmbH, priority 2017, dated 2022)

Key:
[1] = molecular target: CDK8/cyclin C (Homo sapiens (Human), UniProt P49336); assay: CDK8 biochemical assay (TR-FRET Kinase Tracer 236 displacement); format: binding; details: 5 nM CDK8/cyclin C, 10 nM Kinase Tracer 236, 60 min
Method: This assay is used to identify compounds which competitively interact with the binding pocket of the CDK8 kinase.
Assay-ready plates (ARPs; Proxiplate-384 PLUS, white, PerkinElmer) with compound solution in 100% DMSO are generated on an Access Labcyte Workstation with the Labcyte Echo 55x. 150 nL of compound solution are transferred per well in 11 concentrations in duplicates with serial 1:5 dilutions. The final DMSO concentration in the assay is 1%.
5 nM (final assay concentration) CDK8/cyclin C, 2 nM (final assay concentration) Biotin anti-His Tag Antibody and 2 nM (final assay concentration) LanthaScreen Eu-Streptavidin are mixed in assay buffer (50 mM HEPES pH 7.3, 10 mM MgCl2, 1 mM EGTA, 0.01% Brij-35, 0.05% BSA, 1 mM DTT) prior to use and kept at room temperature.
The assay runs on a fully automated robotic system. 10 μL of CDK8/cyclin C, Biotin anti-His Tag Antibody and LanthaScreen Eu-Streptavidin mix are dispensed into columns 1-24. 5 μL of 10 nM (final assay concentration) Kinase Tracer 236 solution in assay buffer are added to columns 1-23, 5 μL of assay buffer into column 24. Plates are kept at room temperature in a darkened incubator. After 60 min incubation time the signal is measured in a PerkinElmer Envision HTS Multilabel Reader using the TR-FRET specs from PerkinElmer.
Each plate contains 16 wells of a negative control (diluted DMSO instead of test compound; CDK8/cyclin C, Biotin anti-His Tag Antibody and LanthaScreen Eu-Streptavidin mix w Kinase Tracer 236; column 23) and 16 wells of a positive control (diluted DMSO instead of test compound; CDK8/cyclin C, Biotin anti-His Tag Antibody and LanthaScreen Eu-Streptavidin mix w/o Kinase Tracer 236; column 24). A known inhibitor of CDK8/cyclin C binding is used as internal control. IC50 values are calculated and analyzed in the MEGALAB IC50 application using a 4 parametric logistic model.
Table 4 includes IC50 values of example compounds determined using the above assay.

[2] = Metabolic (microsomal) stability assay, mouse liver microsomes; format: in vitro ADME; details: predicted clearance as percent of liver blood flow; mouse liver microsomes 0.5 mg/mL, 1 μM compound, 37° C.
Method: (§1) Metabolic (Microsomal) Stability Assay
(§2) The metabolic degradation of the test compound is assayed at 37° C. with pooled liver microsomes (mouse (MLM), rat (RLM) or human (HLM)). The final incubation volume of 74 μL per time point contains TRIS buffer (pH 7.5; 0.1 M), magnesium chloride (6.5 mM), microsomal protein (0.5 mg/mL for mouse/rat, 1 mg/mL for human specimens) and the test compound at a final concentration of 1 μM. Following a short preincubation period at 37° C., the reactions are initiated by addition of 8 μL beta-nicotinamide adenine dinucleotide phosphate, reduced form (NADPH, 10 mM) and terminated by transferring an aliquot into solvent after different time points. Additionally, the NADPH-independent degradation is monitored in incubations without NADPH, terminated at the last time point by addition of acetonitril. The quenched incubations are pelleted by centrifugation (1811 g, 5 min). An aliquot of the supernatant is assayed by LC-MS/MS for the amount of parent compound.
(§3) In vitro intrinsic clearance (CLint,in vitro) is calculated from the time course of the disappearance of the test drug during the microsomal incubation. Each plot is fitted to the first-order elimination rate constant as C(t)=C0*exp(−ke*t), where C(t) and C0 are the concentration of unchanged test drug at incubation time t and that at preincubation and ke is the disappearance rate constant of the unchanged drug. Subsequently, CLint,in vitro (μL·min^−1·amount protein) values are converted to CLint,in vitro (mL·min^−1·kg^−1) for the whole body. CLint,in vitro data are scaled up using physiological parameters. For better across species comparison the predicted clearance is expressed as percent of the liver blood flow [% QH] in the individual species. In general high stability (corresponding to low % QH) of the compounds across species is desired.

[3] = Metabolic (microsomal) stability assay, rat liver microsomes; format: in vitro ADME; details: predicted clearance as percent of liver blood flow; rat liver microsomes 0.5 mg/mL, 1 μM compound, 37° C.
Method: as §1, §2, §3

[4] = Metabolic (microsomal) stability assay, human liver microsomes; format: in vitro ADME; details: predicted clearance as percent of liver blood flow; human liver microsomes 1 mg/mL, 1 μM compound, 37° C.
Method: as §1, §2, §3

Chain of CDK8/cyclin C (P49336 whole entry): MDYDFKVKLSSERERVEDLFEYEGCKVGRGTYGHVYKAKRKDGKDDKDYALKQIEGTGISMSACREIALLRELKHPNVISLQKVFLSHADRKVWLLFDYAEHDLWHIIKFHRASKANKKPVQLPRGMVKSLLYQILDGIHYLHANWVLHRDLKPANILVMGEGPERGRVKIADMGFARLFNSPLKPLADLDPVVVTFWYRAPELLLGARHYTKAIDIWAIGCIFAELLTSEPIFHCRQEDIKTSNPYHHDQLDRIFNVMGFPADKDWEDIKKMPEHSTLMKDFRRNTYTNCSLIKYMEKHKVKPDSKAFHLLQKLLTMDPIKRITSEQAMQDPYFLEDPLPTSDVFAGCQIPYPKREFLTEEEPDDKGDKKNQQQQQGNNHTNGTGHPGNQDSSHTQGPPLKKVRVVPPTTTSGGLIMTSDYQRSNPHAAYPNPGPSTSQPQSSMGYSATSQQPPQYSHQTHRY
Chain of CDK8/cyclin C (P24863 whole entry partner): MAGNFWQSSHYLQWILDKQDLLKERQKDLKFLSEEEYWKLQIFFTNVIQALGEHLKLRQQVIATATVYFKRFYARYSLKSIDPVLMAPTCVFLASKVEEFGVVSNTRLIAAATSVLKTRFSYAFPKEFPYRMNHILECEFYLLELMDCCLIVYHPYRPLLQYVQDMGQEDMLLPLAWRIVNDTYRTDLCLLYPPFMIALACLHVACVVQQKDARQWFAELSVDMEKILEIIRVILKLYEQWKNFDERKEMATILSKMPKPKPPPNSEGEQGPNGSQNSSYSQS

Row | SMILES | IC50 [1] | MLM [% QH] [2] | RLM [% QH] [3] | HLM [% QH] [4]
1 | CN(C)C(=O)Cn1cc(-c2ccc(Oc3ccnc4c(F)cncc34)cc2)cn1 [I-039, 2-{4-[4-(8-fluoro-[1,6]naphthyridin-4-yloxy)-phenyl]-pyrazol-1-yl}-N,N-dimethyl-acetamide] | 2.5 nM | 26 % QH | <24 % QH | <24 % QH
2 | CN(C)C(=O)Cn1cc(-c2ccc(Oc3ccnc4ccncc34)cc2)cn1 [I-040] | 2.6 nM | 45 % QH | 32 % QH | 27 % QH
3 | CN(C)C(=O)Cn1cc(-c2ccc(Oc3ccnc4c(Cl)cncc34)cc2)cn1 [I-043] | 2.7 nM | 25 % QH | 42 % QH | <24 % QH
